{"source": "patent US9918986B2", "about": "“Methods and compounds for preventing osteoarthritis” (UNIVERSITY COLLEGE CARDIFF CONSULTANTS LIMITED, priority 2013, dated 2018)", "origin": "cited, not measured here", "key": {"AMPA receptor": {"system": "AMPA receptor", "conditions": "cited from earlier work"}, "Kainate receptor": {"system": "Kainate receptor", "conditions": "cited from earlier work"}, "rodent arthritis": {"system": "rodent arthritis", "conditions": "oral administration, cited from earlier work"}, "human RA FLS": {"system": "human RA FLS", "conditions": "cited from earlier work"}, "IL-6 receptor": {"biological_target": "T1, IL-6 receptor (Homo sapiens, UniProt P08887)", "T1 construct": "host or cells: RA patients (endogenous receptor)", "T1 sequence (P08887 20-468)": "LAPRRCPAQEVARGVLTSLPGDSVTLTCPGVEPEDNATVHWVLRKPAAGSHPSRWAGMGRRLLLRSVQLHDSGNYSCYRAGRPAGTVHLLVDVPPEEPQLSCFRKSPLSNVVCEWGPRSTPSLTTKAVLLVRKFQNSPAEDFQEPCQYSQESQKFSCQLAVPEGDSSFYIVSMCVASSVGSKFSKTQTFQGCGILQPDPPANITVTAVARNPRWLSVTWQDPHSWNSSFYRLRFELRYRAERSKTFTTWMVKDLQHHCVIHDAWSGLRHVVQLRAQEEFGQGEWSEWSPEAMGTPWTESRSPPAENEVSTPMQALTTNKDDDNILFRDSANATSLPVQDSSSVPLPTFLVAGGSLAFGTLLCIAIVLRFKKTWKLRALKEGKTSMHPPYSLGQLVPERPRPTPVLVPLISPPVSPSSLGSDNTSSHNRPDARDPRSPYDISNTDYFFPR", "conditions": "RA patients; cited from earlier work"}}}
{"compound": "O=C1Nc2c(cc([N+](=O)[O-])c3c2CCCC3)C1=NO", "note": "[NS-102]", "values": [{"measurement": "AMPA receptor antagonist", "setting": "AMPA receptor", "value": "Weak"}, {"measurement": "Kainate receptor antagonist", "setting": "Kainate receptor", "value": "Yes"}]}
{"compound": "NCCCNCCCCNCCCNC(=O)Cc1cccc2ccccc12", "note": "[1-NAS, 1-naphthyl acetyl sperm me]", "values": [{"measurement": "AMPA receptor antagonist", "setting": "AMPA receptor", "value": "Yes"}, {"measurement": "Kainate receptor antagonist", "setting": "Kainate receptor", "value": "No"}]}
{"compound": "CC1=NN=C(c2ccc(N)cc2)c2cc3c(cc2C1)OCO3", "note": "[GYKI52466, 4-(8-Methyl-9H-1,3-dioxolo[4,5-h][2-,3]benzodiazepin-5-yl)-benzenamine]", "values": [{"measurement": "AMPA receptor antagonist", "setting": "AMPA receptor", "value": "Yes"}, {"measurement": "body weight loss", "setting": "rodent arthritis", "value": "attenuated"}, {"measurement": "hyperalgesia", "setting": "rodent arthritis", "value": "attenuated"}, {"measurement": "primary oedema on the right paw", "setting": "rodent arthritis", "value": "no effect"}, {"measurement": "secondary, generalized inflammation-induced swelling of the left paw", "setting": "rodent arthritis; second phase of chronic disease", "value": "no effect"}, {"measurement": "Kainate receptor antagonist", "setting": "Kainate receptor", "value": "Yes"}]}
{"compound": "Cc1cn(C[C@H](N)C(=O)O)c(=O)n(Cc2cc(-c3ccccc3)sc2C(=O)O)c1=O", "note": "[ACET]", "values": [{"measurement": "AMPA receptor antagonist", "setting": "AMPA receptor", "value": "No"}, {"measurement": "Kainate receptor antagonist", "setting": "Kainate receptor", "value": "Yes"}]}
{"compound": "CCNC(=O)CC[C@H](N)C(=O)O", "note": "[L-Theanine, gamma-glutamylethylamide or 5-N-ethyl-glutamine]", "values": [{"measurement": "AMPA receptor antagonist", "setting": "AMPA receptor", "value": "Yes"}, {"measurement": "Kainate receptor antagonist", "setting": "Kainate receptor", "value": "Yes"}]}
{"compound": "O=C(O)c1cc(=O)c2ccccc2[nH]1", "note": "[Kynurenic acid]", "values": [{"measurement": "AMPA receptor antagonist", "setting": "AMPA receptor", "value": "Yes"}, {"measurement": "Kainate receptor antagonist", "setting": "Kainate receptor", "value": "Yes"}]}
{"compound": "C[C@]12N[C@H](Cc3ccccc31)c1ccccc12", "note": "[MK801]", "values": [{"measurement": "proMMP-2 release", "setting": "human RA FLS; RA FLS", "value": "significantly increased"}]}
{"compound": "O=C(O)[C@@H]1C[C@H]2C[C@@H](CCc3nn[nH]n3)CC[C@H]2CN1", "note": "[Tezampanel]", "values": [{"measurement": "AMPA receptor antagonist", "setting": "AMPA receptor", "value": "Yes"}, {"measurement": "Kainate receptor antagonist", "setting": "Kainate receptor", "value": "Yes"}]}
{"compound": "NC(CCCP(=O)(O)O)C(=O)O", "note": "[D-AP5]", "values": [{"measurement": "MMP-2 expression by FLS", "setting": "human RA FLS", "value": "did not affect"}]}
{"compound": "COc1cc2c(cc1OC)C(c1ccc(N)cc1)=NNC(=O)C2", "note": "[CFM-2, 1-(4′-Aminophenyl)-3,5-dihydro-7,8-dimethoxy-4H-2,3-benzodiazepin-4-one]", "values": [{"measurement": "AMPA receptor antagonist", "setting": "AMPA receptor", "value": "Yes"}, {"measurement": "MMP-2 expression by FLS", "setting": "human RA FLS", "value": "did not affect"}, {"measurement": "Kainate receptor antagonist", "setting": "Kainate receptor", "value": "No"}]}
{"compound": "O=C1N=c2cc([N+](=O)[O-])c([N+](=O)[O-])cc2=NC1=O", "note": "[DNQX, 6,7-dinitroquinoxaline-2,3-dione]", "values": [{"measurement": "AMPA receptor antagonist", "setting": "AMPA receptor", "value": "Yes"}, {"measurement": "Kainate receptor antagonist", "setting": "Kainate receptor", "value": "Yes"}]}
{"compound": "tocilizumab: anti-IL-6 receptor inhibitor", "values": [{"measurement": "synovitis and radiographic changes", "setting": "IL-6 receptor", "value": "significantly improves"}]}
{"compound": "N#Cc1cc2c(cc1[N+](=O)[O-])=NC(=O)C(=O)N=2", "note": "[CNQX, 6-cyano-7-nitroquinoxaline-2,3-dione]", "values": [{"measurement": "AMPA receptor antagonist", "setting": "AMPA receptor", "value": "Yes"}, {"measurement": "Kainate receptor antagonist", "setting": "Kainate receptor", "value": "Yes"}]}
